# What was measured:
# Balb/3T3 cells = experiment: PDGF-stimulated Balb/3T3 cell proliferation; assay type: cell-based; conditions: FIGS. 8A (1409), 8B (1560); PDGF/BB
# Procedure: Balb/3T3 cells respond vigorously to PDGF stimulation, and are useful in vitro models for further study of PDGF-induced proliferation. Disregulated PDGF-proliferative response has been linked to a variety of diseases, including, e.g., restenosis, atherosclerosis, fibrosis, and tumor cell angiogenesis.
# Balb/3T3 cells were maintained in exponential growth. The cells were removed from a flask with EDTA and plated into 96 well plates at 3000 cells/well. After 48 hours, the media was removed, the cells washed once with PBS and serum free media and the cultures allowed to rest for a 24 hour period. Inventive compounds were added to the wells containing media and Balb/3T3 cells one hour prior to incubation with PDGF/BB, added at constant 10 μM concentrations along with 1 μ Ci 3-H-thymidine dye. Cells were subsequently incubated for 18-24 hours, harvested, and incorporated thymidine assessed on a Packard Topcount to determine degree of cell proliferation. Data obtained in this assay was used to determine experimental 50% inhibition concentrations for the inventive compounds tested.
# murine splenocytes = experiment: murine splenocyte proliferation co-stimulated by anti-mu and IL-4 (FIG. 11); assay type: cell-based; conditions: Mus musculus, anti-mu / IL-4 12.5 ng/ml
# Procedure: This example illustrates inhibitive effects of compounds nos. 1439, 1553S, 1560 and 1565 on murine splenocyte proliferation co-stimulated by anti-mu ([…]) and interleukin-4 (IL-4, 12.5 ng/ml). This in vitro assay, described above, is indicative of immune-suppressive/autoimmune treatment assay emphasizing humoral or B cell immune response. This assays are a predictive model for treatment or prevention of autoimmune diseases, such as diabetes, lupus, arthritis, and the like. The assay measures immunosuppressive activity of a drug at the B cell level. Spleens from adult mice contain immature B cells that express surface IgM. Cross-linking the surface IgM with an anti-mu antibody results in B cell proliferation. Additionally, this activation results in an increased expression of interleukin-4 receptors(IL-4R) on the surface of such cells. IL-4 acts as a growth factor for B cells and will increase the amount of proliferation induced by anti-mu.
# A mixture of anti-mu and murine IL-4 is added to murine splenocytes to cause their proliferation. Mice spleens are obtained from adult mice and a single cell suspension is prepared in RPMI 1640 medium supplemented with 10% FCS. Cells (200,000) are plated into flat-bottomed wells and pre-incubated for 1-2 hours with various concentrations of inventive compound or PBS if it is a control. A mixture of anti-mu and murine is added to the wells at a final concentration of 5 μg/ml anti-mu and 12.5 ng/ml IL-4 and plates are incubated for three days. Proliferation is determined on the third day with a pulse of tritiated thymidine. The IC50 concentration of a particular drug is the concentration of drug that results in a 50% inhibition of the proliferation obtained from the positive control.
smiles,measurement,setting,value
"Cn1cnc2c1c(=O)n(CCCCCCCC1CO1)c(=O)n2C (centres unmarked) [Compound 1560, 1-(8,9-Oxidononyl)-3,7-dimethylxanthine]",inhibition of Balb/3T3 proliferation,Balb/3T3 cells,inhibit Balb/3T3 proliferation
same,IC50,murine splenocytes,29 µM

# — patent publication US5866576A, “Epoxide-containing compounds” (Cell Therapeutics, Inc., priority 1997, dated 1999)
